The test system of assay [1] is RKO colon adenocarcinoma cells (RKOp27) arrested by the expression of ectopic p27Kip1. Nature of the assay: Alamar Blue cell viability assay on RKOp27 cells arrested by p27Kip1 expression induced by Ponasterone A. The assay is classed as cell-based. To be noted: Homo sapiens, 72 hours incubation, 10 μM Ponasterone A, read-out: IC50 RKO p27 induced (arrested). The procedure: To determine the cell cycle specific mode of action, subclones of RKO colon adenocarcinoma cells (RKOp27 or RKOp21 as described by Schmidt et al. in Oncogene 19, 2423-2429; 2000) are seeded into 96 well flat bottom plates at a density of 15000 cells per well in a volume of 50 μl per well in DMEM growth medium with 10% FCS containing 10 μM Ponasterone A. 24 hours after seeding the 50 μl each of the compound dilutions in DMEM medium are added into each well of the 96 Well plate. Each compound dilution is tested as quadruplicates. Wells containing untreated control cells are filled with 50 μl DMEM medium containing 1% DMSO. The cells are then incubated with the substances for 72 hours at 37° C. in a humidified atmosphere containing 5% carbon dioxide. To determine the viability of the cells, 10 μl of an Alamar Blue solution (Biosource) are added and the fluorescence was measured at an extinction of 544 nm and an emission of 590 nm. For the calculation of the cell viability the emission value from untreated cells is set as 100% viability and the emission rates of treated cells are set in relation to the values of untreated cells. Viabilities are expressed as % values. Viability is compared of proliferating cells grown in the absence of the inducer Ponasterone A, versus viability of cells arrested by the expression of ectopic p27Kip1 induced by Ponasterone A.
Background: Resazurin is reduced to fluorescent resorufin, in cell work by metabolically active cells.

The subject of assay [2] is RKO (RKOp27) human colon adenocarcinoma cells. Briefly: Alamar Blue cell viability assay, anti-proliferative/cytotoxic activity on proliferating (uninduced) RKOp27 cells. To be noted: 72 hours incubation, absence of the inducer Ponasterone A, read-out: IC50 RKO p27 uninduced (proliferating). The format is cell-based. The protocol:
The anti-proliferative/cytotoxic activity of the compounds described herein, can be tested on subclones of RKO (RKOp27) human colon adenocarcinoma cells (Schmidt et al., Oncogene 19, 2423-2429; 2000) using the Alamar Blue cell viability assay (described in O'Brien et al. Eur J Biochem 267, 5421-5426, 2000). The compounds are dissolved as 20 mM solutions in dimethylsulfoxide (DMSO) and subsequently diluted in semi-logarithmic steps. DMSO dilutions are further diluted 1:100 into Dulbecco's modified Eagle's medium (DMEM) containing 10% fetal calf serum to a final concentration twice as much as the final concentration in the test. RKO subclones are seeded into 96 well flat bottom plates at a density of 5000 cells per well in a volume of 50 μl per well. 24 hours after seeding the 50 μl each of the compound dilutions in DMEM medium are added into each well of the 96 Well plate. Each compound dilution is tested as quadruplicates. Wells containing untreated control cells are filled with 50 μl DMEM medium containing 1% DMSO. The cells are then incubated with the substances for 72 hours at 37° C. in a humified atmosphere containing 5% carbon dioxide. To determine the viability of the cells, 10 μl of an Alamar Blue solution (Biosource) are added and the fluorescence is measured at an extinction of 544 nm and an emission of 590 nm. For the calculation of the cell viability the emission value from untreated cells is set as 100% viability and the emission rates of treated cells are set in relation to the values of untreated cells. Viabilities are expressed as % values.
The corresponding IC50 values of the compounds for anti-proliferative/cytotoxic activity are determined from the concentration-effect curves.
Representative IC50 values for anti-proliferation/cytotoxicity determined in the mentioned assay follow from the following table A, in which the numbers of the compounds correspond to the numbers of the examples.

Take `COc1cccc(CCC(=O)Nc2sc3c(c2C#N)CCN(C(=O)CCn2cnc(C)c2)C3)c1` [Example 154, N-{3-Cyano-6-[3-(4-methyl-imidazol-1-yl)-propanoyl]-4,5,6,7-tetrahydro-thieno[2,3-c]pyridin-2-yl}-3-(3-methoxy-phenyl)-propionamide]: the IC50 (in general, the midpoint of a concentration-inhibition curve) in assay [1] is not below 10000 nM; in assay [2], 300 to 2000 nM.
For `COc1ccc(C)cc1CCC(=O)Nc1sc2c(c1C#N)CCN(C(=O)Cn1ccnc1)C2` [Example 86, N-[3-Cyano-6-(2-imidazol-1-yl-ethanoyl)-4,5,6,7-tetrahydro-thieno[2,3-c]pyridin-2-yl]-3-(2-methoxy-5-methyl-phenyl)-propionamide], the results for the IC50 in assay [1] and in assay [2] were not below 40000 nM and 300 to 2000 nM, respectively.
Taken in the same sequence, the figures for `CCOc1ccccc1C(C)CC(=O)Nc1sc2c(c1C#N)CCN(C(=O)Cn1cnc(C)c1)C2` (racemic) [Example 136, (RS)—N-{3-Cyano-6-[2-(4-methyl-imidazol-1-yl)-ethanoyl]-4,5,6,7-tetrahydro-thieno[2,3-c]pyridin-2-yl}-3-(2-ethoxy-phenyl)-butyramide] were not below 10000 nM and 300 to 2000 nM.
Taken in the same sequence, the figures for `COc1ccccc1CCC(=O)Nc1sc2c(c1C#N)CCN(C(=O)Cc1ccccn1)C2` [Example 59, N-[3-Cyano-6-(2-pyridin-2-yl-ethanoyl)-4,5,6,7-tetrahydro-thieno[2,3-c]pyridin-2-yl]-3-(2-methoxy-phenyl)-propionamide] were not below 40000 nM and not above 300 nM.
Taken in the same sequence, the figures for `COc1ccccc1CCC(=O)Nc1sc2c(c1C#N)CCN(C(=O)CCn1cc(C)nc1C)C2` [Example 161, N-{3-Cyano-6-[3-(2,4-dimethyl-imidazol-1-yl)-propanoyl]-4,5,6,7-tetrahydro-thieno[2,3-c]pyridin-2-yl}-3-(2-methoxy-phenyl)-propionamide] were not below 10000 nM and 300 to 2000 nM.
As to `COc1ccccc1C(C)CC(=O)Nc1sc2c(c1C#N)CCN(C(=O)CCc1ccncc1)C2` (racemic) [Example 120, (RS)—N-[3-Cyano-6-(3-pyridin-4-yl-propanoyl)-4,5,6,7-tetrahydro-thieno[2,3-c]pyridin-2-yl]-3-(2-methoxy-phenyl)-butyramide], the IC50 in assay [1] is not below 10000 nM; in assay [2], not above 300 nM.
With `COc1ccccc1CCC(=O)Nc1sc2c(c1C#N)CCN(C(=O)CCc1nccn1C)C2` [Example 116, N-{3-Cyano-6-[3-(1-methyl-1H-imidazol-2-yl)-propanoyl]-4,5,6,7-tetrahydro-thieno[2,3-c]pyridin-2-yl}-3-(2-methoxy-phenyl)-propionamide], the results for the IC50 in assay [1] and in assay [2] were not below 10000 nM and not above 300 nM, respectively.
Taken in the same sequence, the figures for `COc1ccc(C)cc1CCC(=O)Nc1sc2c(c1C#N)CCN(C(=O)CCn1cnc(C)c1)C2` [Example 157, N-{3-Cyano-6-[3-(4-methyl-imidazol-1-yl)-propanoyl]-4,5,6,7-tetrahydro-thieno[2,3-c]pyridin-2-yl}-3-(2-methoxy-5-methyl-phenyl)-propionamide] were not below 10000 nM and 300 to 2000 nM.
As for `CCOc1ccccc1C(C)CC(=O)Nc1sc2c(c1C#N)CCN(C(=O)CCc1ccccn1)C2` (racemic) [Example 137, (RS)—N-[3-Cyano-6-(3-pyridin-2-yl-propanoyl)-4,5,6,7-tetrahydro-thieno[2,3-c]pyridin-2-yl]-3-(2-ethoxy-phenyl)-butyramide], the IC50 was not below 10000 nM in assay [1] and not above 300 nM in assay [2].
Taken in the same sequence, the figures for `CCOc1ccccc1CCC(=O)Nc1sc2c(c1C#N)CCN(C(=O)Cc1ccncc1)C2` [Example 73, N-[3-Cyano-6-(2-pyridin-4-yl-ethanoyl)-4,5,6,7-tetrahydro-thieno[2,3-c]pyridin-2-yl]-3-(2-ethoxy-phenyl)-propionamide] were not below 40000 nM and not above 300 nM.
Taken in the same sequence, the figures for `CCOc1ccccc1C(C)CC(=O)Nc1sc2c(c1C#N)CCN(C(=O)CCn1ccnc1C)C2` (racemic) [Example 106, (RS)—N-{3-Cyano-6-[3-(2-methyl-imidazol-1-yl)-propanoyl]-4,5,6,7-tetrahydro-thieno[2,3-c]pyridin-2-yl}-3-(2-ethoxy-phenyl)-butyramide] were not below 10000 nM and 300 to 2000 nM.
For `CCOc1ccccc1C(C)CC(=O)Nc1sc2c(c1C#N)CCN(C(=O)Cc1ccncc1)C2` (racemic) [Example 71, (RS)—N-[3-Cyano-6-(2-pyridin-4-yl-ethanoyl)-4,5,6,7-tetrahydro-thieno[2,3-c]pyridin-2-yl]-3-(2-ethoxy-phenyl)-butyramide], the IC50 in assay [1] was more than 100000 nM; in assay [2], not above 300 nM.
Taken in the same sequence, the figures for `COc1ccc(C)cc1CCC(=O)Nc1sc2c(c1C#N)CCN(C(=O)CCc1cccnc1)C2` [Example 29, N-[3-Cyano-6-(3-pyridin-3-yl-propanoyl)-4,5,6,7-tetrahydro-thieno[2,3-c]pyridin-2-yl]-3-(2-methoxy-5-methyl-phenyl)-propionamide] were more than 100000 nM and 300 to 2000 nM.
Taken in the same sequence, the figures for `CCOc1ccccc1C(C)CC(=O)Nc1sc2c(c1C#N)CCN(C(=O)Cn1ccnc1C)C2` (racemic) [Example 128, (RS)—N-{3-Cyano-6-[2-(2-methyl-imidazol-1-yl)-ethanoyl]-4,5,6,7-tetrahydro-thieno[2,3-c]pyridin-2-yl}-3-(2-ethoxy-phenyl)-butyramide] were not below 10000 nM and not above 300 nM.
Turning to `COc1ccccc1CCC(=O)Nc1sc2c(c1C#N)CCN(C(=O)CCn1ccnc1)C2` [Example 101, N-[3-Cyano-6-(3-imidazol-1-yl-propanoyl)-4,5,6,7-tetrahydro-thieno[2,3-c]pyridin-2-yl]-3-(2-methoxy-phenyl)-propionamide], the IC50 was not below 40000 nM in assay [1] and not above 300 nM in assay [2].
Taken in the same sequence, the figures for `COc1ccc(C)cc1CCC(=O)Nc1sc2c(c1C#N)CCN(C(=O)Cn1cnc(C)c1)C2` [Example 141, N-{3-Cyano-6-[2-(4-methyl-imidazol-1-yl)-ethanoyl]-4,5,6,7-tetrahydro-thieno[2,3-c]pyridin-2-yl}-3-(2-methoxy-5-methyl-phenyl)-propionamide] were not below 40000 nM and 300 to 2000 nM.
Taken in the same sequence, the figures for `COc1cccc(CCC(=O)Nc2sc3c(c2C#N)CCN(C(=O)Cc2ccncc2)C3)c1` [Example 72, N-[3-Cyano-6-(2-pyridin-4-yl-ethanoyl)-4,5,6,7-tetrahydro-thieno[2,3-c]pyridin-2-yl]-3-(3-methoxy-phenyl)-propionamide] were more than 100000 nM and not above 300 nM.
Taken in the same sequence, the figures for `COc1cccc(CCC(=O)Nc2sc3c(c2C#N)CCN(C(=O)CCc2nccn2C)C3)c1` [Example 115, N-{3-Cyano-6-[3-(1-methyl-1H-imidazol-2-yl)-propanoyl]-4,5,6,7-tetrahydro-thieno[2,3-c]pyridin-2-yl}-3-(3-methoxy-phenyl)-propionamide] were not below 40000 nM and 300 to 2000 nM.
For `CCCC(=O)N1CCc2c(sc(NC(=O)CCc3cccc(OC)c3)c2C#N)C1` [Example 23, N-(6-Butyryl-3-cyano-4,5,6,7-tetrahydro-thieno[2,3-c]pyridin-2-yl)-3-(3-methoxy-phenyl)-propionamide], the IC50 in assay [1] is more than 100000 nM; in assay [2], not above 300 nM.
Taken in the same sequence, the figures for `COc1ccccc1C(C)CC(=O)Nc1sc2c(c1C#N)CCN(C(=O)CCc1ccccn1)C2` (racemic) [Example 94, (RS)—N-[3-Cyano-6-(3-pyridin-2-yl-propanoyl)-4,5,6,7-tetrahydro-thieno[2,3-c]pyridin-2-yl]-3-(2-methoxy-phenyl)-butyramide] were more than 100000 nM and 300 to 2000 nM.
Taken in the same sequence, the figures for `COc1cccc(CCC(=O)Nc2sc3c(c2C#N)CCN(C(=O)Cc2cccnc2)C3)c1` [Example 39, N-[3-Cyano-6-(2-pyridin-3-yl-ethanoyl)-4,5,6,7-tetrahydro-thieno[2,3-c]pyridin-2-yl]-3-(3-methoxy-phenyl)-propionamide] were not below 40000 nM and not above 300 nM.
